Measurements as given in US20260199267A1, “METHOD FOR PREPARING ENDO-C[…] FROM VEGETABLE OILS USING LIPASE AND USE THEREOF” (KOREA RESEARCH INSTITUTE OF BIOSCIENCE AND BIOTECHNOLOGY, priority 2022, published 2026).

Assays:
Type in all cases: cell-based
[1] = target: cannabinoid receptor 2 (CB2) (Homo sapiens, UniProt P34972); assay: agonist effect on cannabinoid receptor, cAMP measurement; settings: CB2, concentration-response graph
Protocol: The efficacy was evaluated by measuring the amount of cyclic adenosine monophosphate (cAMP) generated from adenosine triphosphate (ATP) through the activation of adenylyl cyclase, which is triggered by G-protein alpha (G-protein a) as part of the stepwise signal transduction pathway initiated upon the binding of the test sample to the receptor. The efficacy was evaluated by measuring the amount of cyclic adenosine monophosphate (cAMP) generated from adenosine triphosphate (ATP) through G-protein alpha (G-protein a), which is activated by the binding of the sample to the receptor as part of the stepwise signal transduction pathway, and adenylyl cyclase, which is activated by G-protein a.

[2] = tested on: IL-6 production in LPS-treated RAW 264.7 cells; assay: pro-inflammatory cytokine production, ELISA; settings: reference inhibitor, concentration not given, 24 h
Protocol: (§1) RAW 264.7 cells were dispensed into a 24-well plate at a density of […], incubated for 24 hours, and then treated with a non-cytotoxic concentration of the sample and LPS ([…]), followed by an additional 24-hour incubation. The cell culture was centrifuged at 5,000 rpm for 5 minutes, and the supernatant was collected. The levels of […] (FIG. 88), IL-6 (FIG. 89), and TNF-α (FIG. 90) were then measured using an ELISA kit according to the manufacturer's instructions.

[3] = tested on: TNF-α production in LPS-treated RAW 264.7 cells; assay: pro-inflammatory cytokine production, ELISA; settings: reference inhibitor, concentration not given, 24 h
Protocol: as §1

[4] = tested on: IL-1β production in LPS-treated RAW 264.7 cells; assay: pro-inflammatory cytokine production, ELISA; settings: reference inhibitor, concentration not given, 24 h
Protocol: as §1

Sequence of cannabinoid receptor 2 (CB2) (P34972 whole entry): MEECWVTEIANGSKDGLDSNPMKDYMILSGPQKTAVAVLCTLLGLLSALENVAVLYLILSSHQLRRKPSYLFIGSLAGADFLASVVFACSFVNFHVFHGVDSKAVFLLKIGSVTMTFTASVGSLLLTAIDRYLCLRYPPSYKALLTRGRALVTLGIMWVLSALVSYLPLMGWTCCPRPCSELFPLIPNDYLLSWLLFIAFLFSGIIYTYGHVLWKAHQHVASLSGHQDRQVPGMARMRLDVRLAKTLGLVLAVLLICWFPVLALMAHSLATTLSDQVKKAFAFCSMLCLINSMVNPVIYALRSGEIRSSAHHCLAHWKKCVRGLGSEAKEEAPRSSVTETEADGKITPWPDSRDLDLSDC

SMILES	Graph Min [1]	decrease of IL-6 production [2]	decrease of TNF-α production [3]	decrease of IL-1β production [4]
CCCCCCC(C)(C)c1ccc([C@@H]2C[C@H](O)CC[C@H]2CCCO)c(O)c1 [CP55940]	5.4524	–	–	–
N.S=C(S)N1CCCC1 [APDTC]	–	47.12%	20.28%	45.39%
